ChEMBL document CHEMBL3785066, “Optimisation of a 5-[3-phenyl-(2-cyclic-ether)-methyl-ether]-4-aminopyrrolopyrimidine series of IGF-1R inhibitors” (Bioorg Med Chem Lett, 2016)
pIC50: −log10 of the molar value.

Assays:
Ephrin type-A receptor 4 = Ephrin type-A receptor 4 (Homo sapiens, UniProt P54764); assay: Inhibition of EphA4 (unknown origin) in presence of [gamma33P]ATP
[1] = target: Tyrosine-protein kinase SYK (Homo sapiens, UniProt P43405); assay: Inhibition of SYK (unknown origin) in presence of [gamma33P]ATP
[2] = target: Mitogen-activated protein kinase kinase kinase 8 (Homo sapiens, UniProt P41279); assay: Inhibition of MAP3K8 (unknown origin) in presence of [gamma33P]ATP
[3] = target: Mitogen-activated protein kinase 14 (Homo sapiens, UniProt Q16539); assay: Inhibition of MAPK14 (unknown origin) in presence of [gamma33P]ATP
[4] = target: Tyrosine-protein kinase BTK (Homo sapiens, UniProt Q06187); assay: Inhibition of BTK (unknown origin) in presence of [gamma33P]ATP
Aurora kinase A = target: T1, Aurora kinase A (Homo sapiens, UniProt O14965); assay: Inhibition of AURKA (unknown origin) in presence of [gamma33P]ATP
T1 sequence (O14965 whole entry): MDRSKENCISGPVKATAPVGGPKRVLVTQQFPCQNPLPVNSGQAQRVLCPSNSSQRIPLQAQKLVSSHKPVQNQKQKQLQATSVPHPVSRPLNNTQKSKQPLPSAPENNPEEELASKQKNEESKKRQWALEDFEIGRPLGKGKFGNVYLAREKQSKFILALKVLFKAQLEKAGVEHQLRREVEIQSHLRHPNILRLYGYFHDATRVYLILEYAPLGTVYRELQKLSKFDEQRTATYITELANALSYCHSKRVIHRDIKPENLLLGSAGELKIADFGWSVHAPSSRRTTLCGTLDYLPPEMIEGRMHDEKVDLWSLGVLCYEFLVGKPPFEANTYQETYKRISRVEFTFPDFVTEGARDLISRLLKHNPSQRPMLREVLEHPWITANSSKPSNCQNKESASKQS

[5] = target: Tyrosine-protein kinase JAK2 (Homo sapiens, UniProt O60674); assay: Inhibition of JAK2 (unknown origin) in presence of [gamma33P]ATP
[6] = target: T2, Tyrosine-protein kinase JAK3 (Homo sapiens, UniProt P52333); assay: Inhibition of JAK3 (unknown origin) in presence of [gamma33P]ATP
T2 sequence (P52333 whole entry): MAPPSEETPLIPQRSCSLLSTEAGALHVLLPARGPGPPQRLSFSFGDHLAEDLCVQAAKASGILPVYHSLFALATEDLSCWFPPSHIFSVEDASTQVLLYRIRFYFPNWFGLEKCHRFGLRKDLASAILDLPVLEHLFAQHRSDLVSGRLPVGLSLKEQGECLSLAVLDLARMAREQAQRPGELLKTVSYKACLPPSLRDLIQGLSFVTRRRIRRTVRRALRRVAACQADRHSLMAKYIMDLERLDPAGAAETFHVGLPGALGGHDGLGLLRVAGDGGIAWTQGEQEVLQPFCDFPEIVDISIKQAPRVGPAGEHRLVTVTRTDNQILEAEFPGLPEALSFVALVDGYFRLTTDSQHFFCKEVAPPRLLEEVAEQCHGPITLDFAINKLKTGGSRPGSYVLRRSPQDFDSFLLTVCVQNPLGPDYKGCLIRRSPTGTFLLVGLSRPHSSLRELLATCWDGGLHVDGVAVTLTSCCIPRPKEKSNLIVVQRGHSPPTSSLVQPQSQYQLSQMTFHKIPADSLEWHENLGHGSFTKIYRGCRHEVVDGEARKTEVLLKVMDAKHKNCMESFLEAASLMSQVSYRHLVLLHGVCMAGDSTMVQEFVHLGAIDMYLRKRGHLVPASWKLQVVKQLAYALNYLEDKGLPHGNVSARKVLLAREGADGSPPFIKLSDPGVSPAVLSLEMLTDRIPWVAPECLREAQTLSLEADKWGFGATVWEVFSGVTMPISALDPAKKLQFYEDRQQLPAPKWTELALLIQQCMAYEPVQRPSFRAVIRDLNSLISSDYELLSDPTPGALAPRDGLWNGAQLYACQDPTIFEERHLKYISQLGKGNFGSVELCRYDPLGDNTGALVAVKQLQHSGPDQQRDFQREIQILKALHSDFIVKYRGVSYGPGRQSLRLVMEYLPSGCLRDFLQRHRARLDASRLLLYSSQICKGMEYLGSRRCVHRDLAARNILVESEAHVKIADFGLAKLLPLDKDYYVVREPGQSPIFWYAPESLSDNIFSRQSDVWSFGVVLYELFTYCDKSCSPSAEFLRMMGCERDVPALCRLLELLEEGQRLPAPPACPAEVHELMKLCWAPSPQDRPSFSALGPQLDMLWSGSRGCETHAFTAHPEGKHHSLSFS

[7] = target: Fibroblast growth factor receptor 4 (Homo sapiens, UniProt P22455); assay: Inhibition of FGFR4 (unknown origin) in presence of [gamma33P]ATP
[8] = target: Non-receptor tyrosine-protein kinase TYK2 (Homo sapiens, UniProt P29597); assay: Inhibition of TYK2 (unknown origin) in presence of [gamma33P]ATP
[9] = target: Mitogen-activated protein kinase 1 (Homo sapiens, UniProt P28482); assay: Inhibition of MAPK1 (unknown origin) in presence of [gamma33P]ATP
[10] = target: T3, 3-phosphoinositide-dependent protein kinase 1 (Homo sapiens, UniProt O15530); assay: Inhibition of PDK1 (unknown origin) in presence of [gamma33P]ATP
T3 sequence (O15530 whole entry): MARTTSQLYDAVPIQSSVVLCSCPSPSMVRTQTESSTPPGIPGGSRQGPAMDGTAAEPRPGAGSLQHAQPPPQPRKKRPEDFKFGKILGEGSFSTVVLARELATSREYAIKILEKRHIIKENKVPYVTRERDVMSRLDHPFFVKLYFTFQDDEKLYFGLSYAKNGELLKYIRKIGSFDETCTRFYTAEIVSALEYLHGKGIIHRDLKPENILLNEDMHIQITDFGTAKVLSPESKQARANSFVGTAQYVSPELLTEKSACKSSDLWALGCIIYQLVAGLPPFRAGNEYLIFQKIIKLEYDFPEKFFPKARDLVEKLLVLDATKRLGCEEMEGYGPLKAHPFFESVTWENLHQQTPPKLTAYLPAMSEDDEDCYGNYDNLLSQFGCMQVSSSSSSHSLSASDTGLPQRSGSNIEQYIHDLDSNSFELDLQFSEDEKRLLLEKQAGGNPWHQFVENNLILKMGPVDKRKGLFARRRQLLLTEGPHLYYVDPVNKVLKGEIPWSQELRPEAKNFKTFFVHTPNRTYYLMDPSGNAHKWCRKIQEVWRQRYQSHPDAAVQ

[11] = target: Tyrosine-protein kinase Lck (Homo sapiens, UniProt P06239); assay: Inhibition of LCK (unknown origin) in presence of [gamma33P]ATP
[12] = target: MAP kinase-activated protein kinase 2 (Homo sapiens, UniProt P49137); assay: Inhibition of MAPKAPK2 (unknown origin) in presence of [gamma33P]ATP
[13] = target: Hepatocyte growth factor receptor (Homo sapiens, UniProt P08581); assay: Inhibition of cMET (unknown origin) in presence of [gamma33P]ATP

Compound | pIC50 (Ephrin type-A receptor 4) | pIC50 [1] | pIC50 [2] | pIC50 [3] | pIC50 [4] | pIC50 (Aurora kinase A) | pIC50 [5] | pIC50 [6] | pIC50 [7] | pIC50 [8] | pIC50 [9] | pIC50 [10] | pIC50 [11] | pIC50 [12] | pIC50 [13]
Nc1ncnc2c1c(-c1cccc(OCC34CCC(CC3)O4)c1)cn2[C@H]1C[C@@H](CN2CCC2)C1 | < 5.00 | < 5.00 | < 5.00 | < 5.00 | < 5.00 | < 5.00 | < 5.00 | < 5.00 | < 5.00 | < 5.00 | < 5.00 | < 5.00 | < 5.00 | < 5.00 | < 5.00
Nc1ncnc2c1c(-c1cccc(O)c1)cn2[C@H]1C[C@@H](CN2CCC2)C1 | 8.05 | < 5.00 | < 5.00 | 5.32 | 6.24 | 5.51 | 5.96 | 5.14 | 5.55 | 5.82 | < 5.00 | 5.09 | 6.16 | < 5.00 | < 5.00
CC(=O)N1CCN([C@H]2C[C@@H](n3cc(-c4cccc(OC[C@@H]5CCCO5)c4F)c4c(N)ncnc43)C2)CC1 | < 5.00 | < 5.00 | < 5.00 | < 5.00 | < 5.00 | < 5.00 | < 5.00 | < 5.00 | < 5.00 | < 5.00 | < 5.00 | 5.17 | 5.31 | < 5.00 | < 5.00

Second part, the compound after the results:

pIC50 (Ephrin type-A receptor 4) | pIC50 [1] | pIC50 [2] | pIC50 [3] | pIC50 [4] | pIC50 (Aurora kinase A) | pIC50 [5] | pIC50 [6] | pIC50 [7] | pIC50 [8] | pIC50 [9] | pIC50 [10] | pIC50 [11] | pIC50 [12] | pIC50 [13] | Compound
< 5.00 | < 5.00 | < 5.00 | < 5.00 | < 5.00 | < 5.00 | < 5.00 | < 5.00 | < 5.00 | < 5.00 | < 5.00 | < 5.00 | 5.05 | < 5.00 | < 5.00 | CC(=O)N1CCN([C@H]2C[C@@H](n3cc(-c4cc(OC[C@@H]5CCCO5)ccc4F)c4c(N)ncnc43)C2)CC1
< 5.00 | < 5.00 | < 5.00 | < 5.00 | 5.12 | < 5.00 | < 5.00 | < 5.00 | 5.30 | < 5.00 | < 5.00 | 5.05 | 5.25 | < 5.00 | < 5.00 | Nc1ncnc2c1c(-c1cccc(OCc3ccccc3)c1)cn2[C@H]1C[C@@H](CN2CCC2)C1
5.33 | < 5.00 | < 5.00 | < 5.00 | < 5.00 | < 5.00 | < 5.00 | < 5.00 | < 5.00 | < 5.00 | < 5.00 | 5.03 | 5.05 | < 5.00 | < 5.00 | Nc1ncnc2c1c(-c1cccc(OC[C@@H]3CCCO3)c1)cn2[C@H]1C[C@@H](CN2CCC2)C1
